{
  "source": "patent US10471030B2",
  "about": "“Immunomodulatory and differentiating function selective retinoid and rexinoid compounds in combination with immune modulators for cancer immunotherapy” (Io Therapeutics, Inc., priority 2017, dated 2019)",
  "key": {"[1]": {"test_system": "RARα", "assay": "transactivation assay, agonist activity", "assay_type": "cell-based", "conditions": "RARα versus RARβ, RARγ; FIG. 1", "quoted_text": "Transactivation assays employ expression plasmids encoding the full length receptors RARα, RARβ, and RAR ? . Reporter plasmids containing the herpes virus thymidine kinase promoter and the appropriate retinoic acid receptor response element (RAREs) are positioned upstream of an open coding region encoding firefly luciferase."}, "[2]": {"test_system": "Kasumi-1 cells", "assay": "CFU experiments off and on stroma, Kasumi-1 cells", "assay_type": "cell-based", "conditions": "10^−6 M ATRA, IRX5183, or 10^−7 M AM80", "from_the_text": "(§1) Data across three independent experiments."}, "[3]": {"test_system": "OCI-AML3 cells", "assay": "CFU experiments off and on stroma, OCI-AML3 cells", "assay_type": "cell-based", "conditions": "10^−6 M ATRA, IRX5183, or 10^−7 M AM80", "from_the_text": "as §1"}, "[4]": {"test_system": "Naive CD4+ CD25− FoxP3− cells", "assay": "Treg cell differentiation from naive T cells in vitro (FoxP3-GFP, flow cytometry)", "assay_type": "cell-based, mouse", "conditions": "10 nM", "description": "To determine whether a RARα agonist could affect T cell differentiation, T cells were incubated with a RARα agonist to determine its effect on Foxp3 expression. Naive CD4^+ CD25^− FoxP3^− cells were purified from a Foxp3-GFP mouse using flow cytometry by sorting and isolating based upon a GFP^− phenotype. These cells were activated polyclonally with αCD3 in vitro in the presence of IL-2 and TGF-β. These cells were then cultured in media with various concentrations of compound IRX5183 (a RARα agonist) and the expression of FoxP3-GFP was analyzed by flow cytometry. The RARα agonist compound IRX5183 enhanced differentiation of immunosuppressive Treg cells and inhibited differentiation of inflammatory TH17 cells from naïve T cells in vitro (Table 2)."}, "[5]": {"test_system": "H929 Luc+ cells", "assay": "subcutaneous xenograft model of MM-niche interactions with WT or Smo-KO stroma, bioluminescence", "assay_type": "in vivo, NSG mice", "conditions": "IRX 10 mg/kg i.p. daily, BTZ 0.5 mg/kg i.p. twice weekly", "description": "1×10^6 H929 Luc+ cells and 1×10^6 mouse BM stromal cells were resuspended in 100 μl […]®, diluted with RPMI (1:1), and injected subcutaneously into 16-week-old male NSG mice. After 4 days, treatment with BTZ (0.5 mg/kg i.p. twice weekly) and IRX (10 mg/kg i.p. daily) was initiated. Tumor burden was assessed by bioluminescence using the In Vivo Imaging System (PerkinElmer). For imaging, mice were exposed to 120 mg/kg D-luciferin via intraperitoneal injection […] before imaging and were anesthetized using isoflurane. Images were analyzed with Living Image Software, version 2.5 (PerkinElmer), and data were quantified as photons/second.\nTo study to what extent an RA-low environment created by the BM stroma and enhanced by MM cells via paracrine Hedgehog signaling contributes to BTZ resistance, a xenograft model of MM-niche interactions was developed. Each mouse carried 2 subcutaneous tumors consisting of H929 Luc+ cells and either WT (anterior tumors) or Smo-KO stroma (posterior tumors). Mice were treated with IRX (10 mg/kg i.p. daily), BTZ (0.5 mg/kg i.p. twice weekly), or a combination of both. The growth of tumors bearing WT or Smo-KO stroma was not different in untreated or IRX-treated groups (FIGS. 9 and 10). […] While some tumors in the treatment group receiving combined IRX and BTZ appeared to have regressed completely, even after anatomical study, this was not the case for all the mice in this group."}, "[6]": {"test_system": "MM cells", "assay": "surface CD138 expression of MM cells (flow cytometry)", "assay_type": "cell-based, human", "conditions": "BM stromal cell co-cultures, 1 μM", "description": "(§2) 24-well plates were coated with 0.1% gelatin in PBS for 30 min at 37° C. The gelatin solution was removed, and the stromal cells were cultured overnight at a density of 5×10^4 cells/well to obtain a confluent monolayer. At that time, MM cell lines or primary MM cells (1×10^5 in 2 ml) were added to the stroma cultures. The stroma cocultures were incubated at 37° C. in RPMI containing 10% FCS, L-glutamine, and P/S, with or without AGN194310 (1 μM for 5 days), R115866 (1 μM for 5 days), IRX5183 (1 μM for 5 days), or BTZ (2.5 nM for 48 hr).\nFollowing treatment, MM cells were collected, washed with PBS, and stained for 15 min at room temperature with phycoerythrin-conjugated (PE-conjugated) anti-CD138. Cells were washed to remove unbound antibody and evaluated in a FACSCalibur system (BD Biosciences). Stromal cells were identified by GFP expression, and viable cells were identified using 7-aminoactinomycin D (7-AAD). To calculate cell numbers, live GFP-cells were normalized to calibration beads.\nExpression of CD138 is a hallmark of normal PC differentiation as well MM PCs."}, "[7]": {"test_system": "MM cell lines and MM CD138+ primary cells", "assay": "BTZ sensitivity of MM cells, clonogenic or cellular recovery, liquid or BM stroma", "assay_type": "cell-based, human", "conditions": "BM stroma with 1 μM test agent for 5 days, then BTZ 2.5 nM for 48 hr", "description": "as §2\nMM cells were separated from BM stromal cells by gently pipetting several times around the well. Detached cells were centrifuged, resuspended in fresh media, and incubated in a 24-well plate for 1 hr at 37° C. During this short incubation period, contaminating stromal cells attached to the well, while MM cells remained in suspension. MM cells were then recovered by gently pipetting. This protocol was used for qRT-PCR and CFU coculture experiments. The purity achieved using this protocol was confirmed by flow cytometry to be 98%-99% MM cells and less than 2% contaminating stroma.\nAfter treatment, MM cells were collected, washed with PBS, and plated at a density of 5,000 cells/ml in 1 ml of 1.32% methylcellulose supplemented with 30% FBS, 10% BSA, L-glutamine, P/S, and 0.1 mM β-ME. Cells were plated in triplicate in 35-mm culture dishes, incubated at 37° C., and scored for the presence of colonies 14 days later.\nTo determine whether decreased retinoid signaling contributes to BTZ resistance within the BM niche, MM cell lines and MM CD138+ primary cells were incubated with BM stroma for 5 days, followed by BTZ treatment.\nStrategies to overcome microenvironment-dependent chemoprotection have focused on mobilization of cancer cells from the BM niche into the peripheral circulation. It was analyzed whether the change in phenotype and subsequent BTZ resistance of MM cells were lost upon separation from the BM stroma, a process that mimics mobilization. To this end, H929 cells were separated from BM mesenchymal cells following a 5-day stroma co-culture, incubated in fresh media (RPMI with 10% FBS) for 0 to 48 hr, and then treated with BTZ. […] Thus, microenvironment-dependent BTZ resistance induced by the change in MM cell phenotype may not immediately be reversed by tumor mobilization."}, "[8]": {"test_system": "H929 luciferase+ (Luc+) cells", "assay": "systemic MM xenograft, bioluminescence", "assay_type": "in vivo, NSG mice", "conditions": "4 weeks", "description": "For the systemic MM model, 2×10^6 Luc+/GFP+ H929 cells were injected via the tail vein into 16-week-old male NSG mice. After engraftment, as determined by an exponential increase in bioluminescence, mice were treated with BTZ (0.5 mg/kg i.p.) twice weekly and with IRX (10 mg/kg) once daily. Tumor burden was assessed by bioluminescence, as above.\nTo test whether retinoids can enhance BTZ activity in MM, a systemic MM xenograft was developed by injecting 2×10^6 H929 luciferase+ (Luc+) cells via the tail vein of non-obese, diabetic, severe combined immunodeficiency IL-2 receptor γ-KO (NSG) mice. The animals were randomized to receive IRX, BTZ, or a combination of both, and disease burden was followed weekly by bioluminescence imaging (FIG. 6)."}},
  "data": [
    {"smiles": "CC1(C)CCC(C)(C)c2c1cc(C(=O)Nc1cc(F)c(C(=O)O)c(F)c1)c(O)c2Cl", "note": "[IRX5183]", "values": [
      {"measurement": "agonist activity, activation of transcription", "setting": "[1]", "value": "specifically activates RARα"},
      {"measurement": "clonogenic growth (CFU)", "setting": "[2]", "value": "decrease in clonogenic growth compared to control"},
      {"measurement": "clonogenic growth (CFU)", "setting": "[3]", "value": "decrease in clonogenic growth compared to control"},
      {"measurement": "Treg cell Percent Differentiation (%)", "setting": "[4]", "value": 90, "unit": "%"},
      {"measurement": "growth or response of tumors bearing WT versus Smo-KO stroma", "setting": "[5]", "value": "not different"},
      {"measurement": "surface CD138 expression", "setting": "[6]", "value": "restored CD138 expression"},
      {"measurement": "stroma-induced BTZ resistance", "setting": "[7]", "value": "overcome"},
      {"measurement": "disease burden (bioluminescence)", "setting": "[8]; IRX in combination with BTZ", "value": "significant (P<0.01) decrease in disease burden"},
      {"measurement": "tumor burden (bioluminescence)", "setting": "[8]; monotherapy, BTZ 0.5 mg/kg i.p. twice weekly, IRX 10 mg/kg once daily", "value": "decrease in tumor burden compared with untreated mice"}
    ]}
  ]
}
